Data taken from patent US20150315188A1, “COMPOUNDS AND METHODS FOR TREATMENT OF HYPERTENSION” (MEDIVATION TECHNOLOGIES, INC., priority 2012, published 2015).

How the values were obtained:
Design in all cases: purchased Milipore (Millipore)
[1] = biological target: T1, Human adrenergic α2B receptor (Homo sapiens, UniProt P18089); assay: Radioligand binding, adrenergic α2B (Protocol Group B); settings: Protocol Group B; for Percentage inhibition of ligand binding, Adrenergic α2B (10 nM): 10 nM compound, 0.01 µM; for Percentage inhibition of ligand binding, Adrenergic α2B (30 nM): 30 nM compound, 0.03 µM; for Percentage inhibition of ligand binding, Adrenergic α2B (0.1 μM): 0.1 μM compound
T1 sequence (P18089 1-450): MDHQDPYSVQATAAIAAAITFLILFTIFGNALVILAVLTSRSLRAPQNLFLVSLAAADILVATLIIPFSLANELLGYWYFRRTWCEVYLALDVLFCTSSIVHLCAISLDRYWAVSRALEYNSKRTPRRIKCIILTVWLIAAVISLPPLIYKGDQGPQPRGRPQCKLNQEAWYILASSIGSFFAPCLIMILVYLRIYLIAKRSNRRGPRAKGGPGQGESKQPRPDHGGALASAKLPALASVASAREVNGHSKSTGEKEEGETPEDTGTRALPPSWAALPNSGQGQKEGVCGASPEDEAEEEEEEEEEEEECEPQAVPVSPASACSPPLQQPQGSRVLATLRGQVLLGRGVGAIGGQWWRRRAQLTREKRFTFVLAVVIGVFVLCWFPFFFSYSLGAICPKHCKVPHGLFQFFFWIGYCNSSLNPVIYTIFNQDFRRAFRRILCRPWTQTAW
In short: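 Recombinant human α2B receptor membranes incubated with compounds in 50 mM Tris-HCl pH 7.4, 5 mM MgCl2, 1 mM CaCl2, 0.2% BSA, 1% DMSO vehicle. Non-specific binding defined with 10 μM rauwolscine. Values are percent inhibition of specific binding or estimated Ki.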

[2] = biological target: T2, Human adrenergic α2A receptor (Homo sapiens, UniProt P08913); assay: Radioligand binding, adrenergic α2A (Protocol Group B); settings: Protocol Group B; for Percentage inhibition of ligand binding, Adrenergic α2A (0.1 μM): 0.1 μM compound; for Percentage inhibition of ligand binding, Adrenergic α2A (0.3 μM): 0.3 μM compound
T2 sequence (P08913 1-465): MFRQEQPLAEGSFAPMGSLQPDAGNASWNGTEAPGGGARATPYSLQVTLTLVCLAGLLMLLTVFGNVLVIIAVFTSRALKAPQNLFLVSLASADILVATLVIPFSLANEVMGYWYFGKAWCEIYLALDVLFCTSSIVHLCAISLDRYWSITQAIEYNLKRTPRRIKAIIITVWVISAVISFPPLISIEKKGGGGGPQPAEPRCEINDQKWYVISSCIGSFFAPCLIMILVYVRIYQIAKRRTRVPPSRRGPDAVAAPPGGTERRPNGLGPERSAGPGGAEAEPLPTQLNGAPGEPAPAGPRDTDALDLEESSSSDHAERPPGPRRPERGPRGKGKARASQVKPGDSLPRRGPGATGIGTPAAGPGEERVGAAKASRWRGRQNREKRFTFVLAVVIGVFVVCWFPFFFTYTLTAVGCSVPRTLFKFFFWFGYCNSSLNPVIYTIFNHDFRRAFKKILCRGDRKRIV
In short: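 Membranes from recombinant cells expressing the receptor, in 50 mM Tris-HCl pH 7.4 with 5 mM MgCl2, 1 mM CaCl2, 0.2% BSA; compounds incubated with 2 nM [^3H]MK-912 for 60 min at 25° C. Nonspecific binding defined by 10 μM rauwolscine; filtration, counting; percent inhibition of specific binding, or estimated Ki.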

[3] = biological target: T3, Human adrenergic α1B receptor (Homo sapiens, UniProt P35368); assay: Radioligand binding, adrenergic α1B (Protocol Group B); settings: Protocol Group B; for Percentage inhibition of ligand binding, Adrenergic α1B (0.1 μM): 0.1 μM compound; for Percentage inhibition of ligand binding, Adrenergic α1B (0.3 μM): 0.3 μM compound
T3 sequence (P35368 1-520): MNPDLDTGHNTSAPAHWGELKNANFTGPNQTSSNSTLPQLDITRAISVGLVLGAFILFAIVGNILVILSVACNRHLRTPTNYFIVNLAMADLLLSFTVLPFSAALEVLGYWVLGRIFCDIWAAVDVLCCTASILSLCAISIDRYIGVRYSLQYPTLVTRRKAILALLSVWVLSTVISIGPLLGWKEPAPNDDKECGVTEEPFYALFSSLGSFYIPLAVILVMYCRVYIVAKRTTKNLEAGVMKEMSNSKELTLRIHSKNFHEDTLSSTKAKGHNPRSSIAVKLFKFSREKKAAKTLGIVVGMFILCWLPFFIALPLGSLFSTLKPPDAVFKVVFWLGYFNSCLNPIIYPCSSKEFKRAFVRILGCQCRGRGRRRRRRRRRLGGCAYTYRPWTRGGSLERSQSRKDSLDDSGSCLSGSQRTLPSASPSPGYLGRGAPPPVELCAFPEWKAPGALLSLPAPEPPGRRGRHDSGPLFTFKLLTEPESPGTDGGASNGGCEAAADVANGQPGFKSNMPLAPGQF
In short: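 Recombinant human α1B membranes incubated with test compound and 0.3 nM [3H]prazosin, 60 min at 25 °C, in 50 mM Tris-HCl pH 7.4, 10 mM MgCl2, 1 mM EDTA; nonspecific binding with 10 μM prazosin. Filter-bound radioactivity counted; values are % inhibition of specific binding or estimated Ki.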

Row | SMILES | Percentage inhibition of ligand binding, Adrenergic α2B (10 nM) [1] | Percentage inhibition of ligand binding, Adrenergic α2B (30 nM) [1] | Percentage inhibition of ligand binding, Adrenergic α2B (0.1 μM) [1] | Percentage inhibition of ligand binding, Adrenergic α2A (0.1 μM) [2] | Percentage inhibition of ligand binding, Adrenergic α2A (0.3 μM) ([2]; 0.3 µM) | Percentage inhibition of ligand binding, Adrenergic α1B (0.1 μM) [3] | Percentage inhibition of ligand binding, Adrenergic α1B (0.3 μM) [3] | Percentage inhibition of ligand binding, Adrenergic α2A (0.3 μM) [2]
1 | Cc1ccc2c(c1)c1c(n2CC(C)(O)c2ccc(N(C)C)nc2)CCN(C)C1 (single isomer, unassigned) [39b] | 5% | 20% | 32% | 6% | 5% | 10% | 10% | 
2 | CN1CCc2c(c3cc(CCO)ccc3n2CC(O)c2ccncc2)C1 (single isomer, unassigned) [140a] |  | −12% |  | −5% |  | −9% |  | 
3 | Cc1cc(F)c2c(c1)c1c(n2CC(C)(O)c2ccncc2)CCN2CCCC12 (single isomer, unassigned) [81d] | −7% | 8% | 18% | 11% | 6% | 5% | 9% | 
4 | CN1CCc2c(c3cc(CCO)ccc3n2CC(O)c2ccncc2)C1 (single isomer, unassigned) [140b] |  | 56% |  | −11% |  | −4% |  | 
5 | Cc1ccc2c(c1)c1c(n2CC(O)c2ccncc2)CN(C)C2CCCC12 (single isomer, unassigned) [36b] | −19% | −14% | −10% | −7% |  | 0% | 5% | −5%
6 | OC(Cn1c2c(c3cc(F)cc(F)c31)C1CCCN1CC2)c1ccncc1 (single isomer, unassigned) [144a] |  | 73% |  | 16% |  | 28% |  | 
7 | CC(O)(Cn1c2c(c3cc(Cl)cc(F)c31)C1CCCN1CC2)c1cccnc1 (single isomer, unassigned) [53d] | −3% | −4% | −5% | 0% | 5% | −16% | −8% | 
8 | Cc1cc(F)cc2c3c(n(CC(C)(O)c4ccncc4)c12)CC1CCCN1C3 (single isomer, unassigned) [78c] | 20% | 33% |  | 3% | −1% | −11% | −2% | 

More lines, now with the values ahead:

Row | Percentage inhibition of ligand binding, Adrenergic α2B (10 nM) [1] | Percentage inhibition of ligand binding, Adrenergic α2B (30 nM) [1] | Percentage inhibition of ligand binding, Adrenergic α2B (0.1 μM) [1] | Percentage inhibition of ligand binding, Adrenergic α2A (0.1 μM) [2] | Percentage inhibition of ligand binding, Adrenergic α2A (0.3 μM) ([2]; 0.3 µM) | Percentage inhibition of ligand binding, Adrenergic α1B (0.1 μM) [3] | Percentage inhibition of ligand binding, Adrenergic α1B (0.3 μM) [3] | Percentage inhibition of ligand binding, Adrenergic α2A (0.3 μM) [2] | SMILES
9 | 12% | 32% | 62% | 16% | 26% | 2% | 21% |  | Cc1cc(F)c2c(c1)c1c(n2CC(C)(O)c2ccncc2)CC2CCCN2C1 (single isomer, unassigned) [62b]
10 | 15% | 47% | 76% | 10% | 37% | 4% | 27% |  | CC(O)(Cn1c2c(c3cc(C(F)(F)F)ccc31)C1CCCN1CC2)c1cccnc1 (single isomer, unassigned) [64b]
11 | −6% | −3% | 22% | 0% | 13% | −1% | 1% |  | CC(O)(Cn1c2c(c3cc(Cl)cc(F)c31)CN1CCCC1C2)c1cccnc1 (single isomer, unassigned) [63b]
12 | −7% | 0% | 14% | −12% | −11% | −4% | −4% |  | CC(O)(Cn1c2c(c3cc(F)ccc31)C1CCCN1CC2)c1cccnc1 (stereo not drawn) [57a]
13 | −8% | −10% | 0% | −12% | 1% | 1% | −5% |  | Cc1ccc2c(c1)c1c(n2CC(C)(O)c2cccnc2)CC2CCCN2C1 (stereo not drawn) [41c]
